Test system: Mycobacterium marinum strain E11
Assay: Granuloma formation in zebrafish larvae after intrayolk injection with Mycobacterium marinum (COPAS XL fluorescence profiling)
Assay type: in vivo
Conditions: zebrafish embryos injected intrayolk at 16- to 256-cell stage, refreshed daily, screened at 5 dpi, confirmed by stereo fluorescence microscopy

Structure (SMILES): O=S(=O)(NCCNC/C=C/c1ccc(Br)cc1)c1cccc2cnccc12 [H89]
- presence of CherryFP-labeled granulomas in larvae (exposed from 2 dpi to 10 μM in 0.5% DMSO): did not contain granulomas

Structure (SMILES): CC[C@@H](CO)NCCN[C@@H](CC)CO [ethambutol]
- presence of CherryFP-labeled granulomas in larvae (exposed from 2 dpi to 2 mM in water): did not contain granulomas

From patent publication US20120178646A1, “HIGH THROUGHPUT METHOD AND SYSTEM FOR IN VIVO SCREENING” (ZF SCREENS B.V., priority 2009, published 2012)
